# Assay results taken from patent EP1501514B1, “PROTEIN KINASE MODULATORS AND METHODS OF USE” (Exelixis, Inc., priority 2002, dated 2003).
# Read-outs that look alike come from different tables or passages of the source.
# Molecular target: T1, Chk1 (Homo sapiens, UniProt O14757)
# T1 construct: purchased Upstate Biotechnology
# T1 sequence (O14757 1-476): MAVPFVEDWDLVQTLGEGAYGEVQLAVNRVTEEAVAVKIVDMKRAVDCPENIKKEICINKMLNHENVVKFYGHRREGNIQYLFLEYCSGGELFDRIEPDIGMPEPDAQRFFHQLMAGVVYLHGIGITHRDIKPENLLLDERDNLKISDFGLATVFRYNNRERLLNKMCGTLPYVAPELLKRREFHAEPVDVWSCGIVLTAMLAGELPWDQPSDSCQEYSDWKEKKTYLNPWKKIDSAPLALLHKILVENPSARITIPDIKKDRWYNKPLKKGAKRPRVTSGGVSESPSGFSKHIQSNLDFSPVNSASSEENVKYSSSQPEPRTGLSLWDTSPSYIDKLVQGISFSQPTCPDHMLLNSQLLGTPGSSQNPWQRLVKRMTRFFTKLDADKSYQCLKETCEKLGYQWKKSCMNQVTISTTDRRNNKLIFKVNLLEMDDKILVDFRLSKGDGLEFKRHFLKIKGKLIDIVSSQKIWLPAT
# Assay: Chk1 assay: incorporation of γ-33P ATP into immobilized myelin basic protein
# Type: biochemical
# Experimental: Chk1 and Chk2 assays were performed by measuring incorporation of γ-^33P ATP into immobilized myelin basic protein (MBP). High binding white 384 well plates (Greiner) were coated with MBP (Sigma #M-1891) by incubation of 60ul/well of 20µg/ml MBP in Tris-buffered saline (TBS; 50mM Tris pH 8.0, 138mM NaCl, 2.7mM KCl) for 24 hours at 4° C. Plates were washed 3X with 100µl TBS. Kinase reactions were carried out in a total volume of 34µl in kinase buffer (5mM Hepes pH 7.6, 15mM NaCl, 0.01% bovine gamma globulin (Sigma #I-5506), 10mM MgCl2, 1mM DTT, 0.02% TritonX-100). Compound dilutions were performed in DMSO and added to assay wells to a final DMSO concentration of 1%. Each data point was measured in duplicate, and at least two duplicate assays were performed for each individual compound determination. Chkl and Chk2 enzymes (Upstate Biotechnology) were added to final concentrations of 10nM (Chkl) or 20nM (Chk2). A mixture of unlabeled ATP and γ-^33P ATP was added to start the reaction (2x10^6 cpm of γ-^33P ATP per well (3000Ci/mmole) and either 10µM or 30µM unlabeled ATP (for Chkl and Chk2 assays respectively). The reaction was carried out for 1 hour at room temperature with shaking. Plates were washed 7x with TBS, followed by the addition of 50µl/well scintillation fluid (Wallac). Plates were read using a Wallac Trilux counter. This is only one format of such assays, various other formats are possible, as known to those skilled in the art.
# The above assay procedure can be used to determine the IC50 for inhibition and/or the inhibition constant Ki. The IC50 is defined as the concentration of compound required to reduce the enzyme activity by 50% under the conditions of the assay. […] The Ki for a compound may be determined from the IC50 based on three assumptions. First, only one compound molecule binds to the enzyme and there is no cooperativity. […] Third, the enzymatic rate of the enzyme-inhibitor complex is zero. The rate (i.e., compound concentration) data are fitted to the equation: V = Vmax E0 [I-((E0+I0+Kd)-sqrt(((E0+I0+Kd))^2 -4E0 I0))/(2E0)] [formula]
# [1] = Table 11, inhibition given as IC50 class symbol
Compound,"IC50 (Table 11, Chk1 only) [µM]",other results
"NNC(=O)c1nc(-c2ccccc2)cnc1N [compound 48, 3-amino-6-phenylpyrazine-2-carbohydrazide]",1 to 10,
"Nc1ncc(-c2cccc(C(=O)NCc3cccnc3)c2)nc1C(=O)N[C@H]1CCNC1 [compound 762, 3-amino-6-(3-{[(pyridin-3-ylmethyl)amino]carbonyl}phenyl)-N-[(3S)-pyrrolidin-3-yl]pyrazine-2-carboxamide]",,IC50 [1]: 0.05 to 1 µM
"Nc1ncc(-c2cccc(C(=O)NCc3ccc(-c4cccs4)cc3)c2)nc1C(=O)N[C@H]1CCCNC1 [compound 854, 3-amino-N-[(3S)-piperidin-3-yl]-6-{3-[({[4-(2-thienyl)phenyl]methyl}amino)carbonyl]phenyl}pyrazine-2-carboxamide]",,IC50: < 0.05 µM
"NC(=O)c1nc(-c2cccc(C(=O)O)c2)cnc1N [compound 42, 3-[5-amino-6-(aminocarbonyl)pyrazin-2-yl]benzoic acid]",> 10,
"NC(=O)c1nc(-c2cccc(OCc3ccccc3)c2)cnc1N [compound 35, 3-amino-6-{3-[(phenylmethyl)oxy]phenyl}pyrazine-2-carboxamide]",0.05 to 1,
"CNC(=O)c1nc(-c2cccc(C(C)=O)c2)cnc1N [compound 65, 6-(3-acetylphenyl)-3-amino-N-methylpyrazine-2-carboxamide]",1 to 10,
"NC(=O)c1nc(-c2ccccc2Cl)cnc1N [compound 7, 3-amino-6-(2-chlorophenyl)pyrazine-2-carboxamide]",> 10,
"CCOc1cccc(-c2cnc(N)c(C(N)=O)n2)c1 [compound 24, 3-amino-6-[3-(ethyloxy)phenyl]pyrazine-2-carboxamide]",1 to 10,
"CNC(=O)c1nc(-c2cccc(NC(C)=O)c2)cnc1N [compound 56, 6-[3-(acetylamino)phenyl]-3-amino-N-methylpyrazine-2-carboxamide]",0.05 to 1,
"CNc1ncc(-c2ccccc2)nc1C(N)=O [compound 38, 3-(methylamino)-6-phenylpyrazine-2-carboxamide]",> 10,
"CNC(=O)c1nc(-c2cccc(-c3ccccc3)c2)cnc1N [compound 55, 3-amino-6-biphenyl-3-yl-N-methylpyrazine-2-carboxamide]",0.05 to 1,
"Nc1ncc(-c2cccc(C(=O)NCc3ccc(F)c(Cl)c3)c2)nc1C(=O)N[C@H]1CCCNC1 [compound 1006, 3-amino-6-[3-({[(3-chloro-4-fluorophenyl)methyl]amino}carbonyl)phenyl]-N-[(3S)-piperidin-3-yl]pyrazine-2-carboxamide]",,IC50: < 0.05 µM
"CNC(=O)c1nc(-c2cccc(O)c2)cnc1N [compound 45, 3-amino-6-(3-hydroxyphenyl)-N-methylpyrazine-2-carboxamide]",0.05 to 1,
"Nc1ncc(-c2cccc(C(=O)NCc3cc(C(F)(F)F)ccc3Cl)c2)nc1C(=O)N[C@H]1CCCNC1 [compound 994, 3-amino-6-{3-[({[2-chloro-5-(trifluoromethyl)phenyl]methyl}amino)carbonyl]phenyl}-N-[(3S)-piperidin-3-yl]pyrazine-2-carboxamide]",,IC50: < 0.05 µM
"CCOc1ccc(-c2cnc(N)c(C(=O)NC)n2)cc1 [compound 52, 3-amino-6-[4-(ethyloxy)phenyl]-N-methylpyrazine-2-carboxamide]",1 to 10,
"CC(C)(C)OC(=O)N1CC[C@H](CNC(=O)c2nc(-c3cccc(C(=O)N[C@H]4CCc5ccccc54)c3)cnc2N)C1 [compound 784, 1,1-dimethylethyl (3R)-3-[({[3-amino-6-(3-{[(1S)-2,3-dihydro-1H-inden-1-ylamino]carbonyl}phenyl)pyrazin-2-yl]carbonyl}amino)methyl]pyrrolidine-1-carboxylate]",,IC50 [1]: > 10 µM
"CC(C)(C)OC(=O)N1CC[C@H](NC(=O)c2nc(-c3cccc(C(=O)NCc4ccc(Cl)cc4)c3)cnc2N)C1 [compound 756, 1,1-dimethylethyl (3S)-3-[({3-amino-6-[3-({[(4-chlorophenyl)methyl]amino}carbonyl)phenyl]pyrazin-2-yl}carbonyl)amino]pyrrolidine-1-carboxylate]",,IC50 [1]: 0.05 to 1 µM
"NC(=O)c1nc(-c2ccc3c(c2)OCO3)cnc1N [compound 25, 3-amino-6-(1,3-benzodioxol-5-yl)pyrazine-2-carboxamide]",> 10,
"CNC(=O)c1nc(-c2ccc(F)c(C)c2)cnc1N [compound 61, 3-amino-6-(4-fluoro-3-methylphenyl)-N-methylpyrazine-2-carboxamide]",0.05 to 1,

Compound,"IC50 (Table 11, Chk1 only) [µM]",other results
"COCCNC(=O)c1nc(-c2ccccc2)cnc1N [compound 46, 3-amino-N-[2-(methyloxy)ethyl]-6-phenylpyrazine-2-carboxamide]",1 to 10,
"Nc1ncc(-c2ccccc2)nc1C(=O)N1CCCC1 [compound 11, 5-phenyl-3-(pyrrolidin-1-ylcarbonyl)pyrazin-2-amine]",> 10,
"Cc1ccccc1-c1cnc(N)c(C(N)=O)n1 [compound 16, 3-amino-6-(2-methylphenyl)pyrazine-2-carboxamide]",> 10,
"CNC(=O)c1nc(-c2noc(C3CCCCC3)n2)cnc1N [compound 68, 3-amino-6-(5-cyclohexyl-1,2,4-oxadiazol-3-yl)-N-methylpyrazine-2-carboxamide]",> 10,
"CNC(=O)c1nc(-c2ccc(F)cc2)cnc1N [compound 22, 3-amino-6-(4-fluorophenyl)-N-methylpyrazine-2-carboxamide]",1 to 10,
"Nc1ncc(-c2ccccc2)nc1C(=O)NCC1CCCO1 (centres unmarked) [compound 13, 3-amino-6-phenyl-N-(tetrahydrofuran-2-ylmethyl)pyrazine-2-carboxamide]",> 10,
"CN(C)c1ccc(-c2cnc(N)c(C(N)=O)n2)cc1 [compound 32, 3-amino-6-[4-(dimethylamino)phenyl]pyrazine-2-carboxamide]",1 to 10,
"NC(=O)c1nc(-c2cccc(-c3ccccc3)c2)cnc1N [compound 41, 3-amino-6-biphenyl-3-ylpyrazine-2-carboxamide]",0.05 to 1,
"Cc1cccc(-c2cnc(N)c(C(=O)NCCO)n2)c1 [compound 329, 3-amino-N-(2-hydroxyethyl)-6-(3-methylphenyl)pyrazine-2-carboxamide]",1 to 10,
"COc1cccc(-c2cnc(N)c(C(N)=O)n2)c1 [compound 10, 3-amino-6-[3-(methyloxy)phenyl]pyrazine-2-carboxamide]",1 to 10,
"Nc1ncc(-c2ccccc2)nc1C(=O)NC1CCCC1 [compound 8, 3-amino-N-cyclopentyl-6-phenylpyrazine-2-carboxamide]",> 10,
"NC(=O)c1nc(-c2cc3ccccc3o2)cnc1N [compound 37, 3-amino-6-(1-benzofuran-2-yl)pyrazine-2-carboxamide]",> 10,
"NC(=O)c1nc(-c2ccc(-c3ccccc3)cc2)cnc1N [compound 31, 3-amino-6-biphenyl-4-ylpyrazine-2-carboxamide]",> 10,
"CCCNC(=O)c1nc(-c2ccccc2)cnc1NCCC [compound 15, 6-phenyl-N-propyl-3-(propylamino)pyrazine-2-carboxamide]",> 10,
"CN(C)C(=O)c1nc(-c2ccccc2)cnc1N [compound 9, 3-amino-N,N-dimethyl-6-phenylpyrazine-2-carboxamide]",1 to 10,
"CC(=O)NCCNC(=O)c1nc(-c2ccccc2)cnc1N [compound 47, N-[2-(acetylamino)ethyl]-3-amino-6-phenylpyrazine-2-carboxamide]",> 10,
"NC(=O)c1nc(-c2cccc(O)c2)cnc1N [compound 36, 3-amino-6-(3-hydroxyphenyl)pyrazine-2-carboxamide]",0.05 to 1,
"CNC(=O)c1cccc(-c2cnc(N)c(C(=O)NC)n2)c1 [compound 64, 3-amino-N-methyl-6-{3-[(methylamino)carbonyl]phenyl}pyrazine-2-carboxamide]",1 to 10,
"NC(=O)c1nc(-c2ccc(F)c(F)c2)cnc1N [compound 21, 3-amino-6-(3,4-difluorophenyl)pyrazine-2-carboxamide]",> 10,
